# Legend:
# [1] = Stability assessment: storage of the solid sample, then HPLC analysis; assay type: physicochemical; details: in % (unit assumed); for Stability result (HPLC analysis), Open ACC: open state, accelerated condition (40° C., 75% RH); for Stability result (HPLC analysis), Closed STR: sealed state, harsh condition, oven at 80° C.
# Procedure: About 10-30 mg of the sample was stored for 4 weeks in an open state under the accelerated condition (40° C., 75% RH) or in a sealed state under the harsh condition in an oven at 80° C.
# [2] = as above; assay type: physicochemical; details: in % (unit assumed)
smiles,measurement,setting,value
"CC(C)C(=O)N([C@H]1C[C@@H](C(=O)N2CCOCC2)N(C(=O)[C@@H]2CN(C(C)(C)C)C[C@H]2c2ccc(Cl)cc2)C1)[C@H]1CC[C@@H](C)CC1.Cl [Example 1, N-((3S,5S)-1-((3S,4R)-1-(tert-butyl)-4-(4-chlorophenyl)pyrrolidine-3-carbonyl)-5-(morpholine-4-carbonyl)pyrrolidin-3-yl)-N-((1s,4R)-4-methylcyclohexyl)isobutyramide hydrochloride]","Stability result (HPLC analysis), Open ACC",[1]; Day 3,97.95
same,"Stability result (HPLC analysis), Closed STR",[1]; Day 3,97.94
same,Stability result (HPLC analysis),[1]; Initial,97.94
same,"Stability result (HPLC analysis), Open ACC",[1]; Week 1,98.04
same,"Stability result (HPLC analysis), Closed STR",[1]; Week 1,97.83
same,"Stability result (HPLC analysis), Open ACC",[1]; Week 2,98.04
same,"Stability result (HPLC analysis), Closed STR",[1]; Week 2,97.88
same,"Stability result (HPLC analysis), Open ACC",[1]; Week 4,97.68
same,"Stability result (HPLC analysis), Closed STR",[1]; Week 4,97.10
same,"Stability result (HPLC analysis), Closed RT","[2]; Week 2, stored at room temperature",97.86
same,"Stability result (HPLC analysis), Closed RT","[2]; Week 4, stored at room temperature",97.27

# From patent US20250179016A1, “AMORPHOUS MELANOCORTIN-4 RECEPTOR AGONIST” (LG CHEM, LTD., priority 2020, published 2025)
